Measured values: patent US20230183193A1, “4-DIFLUOROMETHYL BENZOYL AMIDES WITH HERBICIDAL ACTION” (BAYER CROPSCIENCE AKTIENGESELLSCHAFT, priority 2017, published 2023)

Tests used:
Assay type in all cases: in vivo
Alopecurus myosuroides [1] = assay: Post-emergence herbicidal action, ALOMY; details: 80 g/ha, Table C
Summary of the method: (§1)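 Greenhouse-grown weeds in sandy loam, treated at the one-leaf stage 2 to 3 weeks after sowing with WP or EC formulations sprayed as aqueous suspension/emulsion at 600 to […] water plus 0.2% wetting agent. Visual scoring after about 3 weeks versus untreated controls, 0% (like control) to 100% (plants dead).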

Avena fatua [2] = assay: Post-emergence herbicidal action, AVEFA; details: 80 g/ha, Table C
Summary of the method: as §1

Stellaria media [3] = assay: Post-emergence herbicidal action, STEME; details: 80 g/ha, Table D
Summary of the method: as §1

Abutilon theophrasti [4] = assay: Post-emergence herbicidal action, ABUTH; details: 80 g/ha, Table D
Summary of the method: as §1

Matricaria inodora = assay: Pre-emergence herbicidal action, MATIN; details: dosage 320 g/ha, scored visually after 3 weeks vs untreated controls
Summary of the method: (§2)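 Weed seeds were laid out in sandy loam and covered with soil, then the soil surface was treated with an aqueous suspension or emulsion of the formulated compound containing 0.2% wetting agent. Pots stayed in the greenhouse for 3 weeks before damage was rated visually against untreated plants.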

Stellaria media [5] = assay: Pre-emergence herbicidal action, STEME; details: dosage 320 g/ha, scored visually after 3 weeks vs untreated controls
Summary of the method: as §2

Abutilon theophrasti [6] = assay: Pre-emergence herbicidal action, ABUTH; details: dosage 320 g/ha, scored visually after 3 weeks vs untreated controls
Summary of the method: as §2

ECHCG = assay: Post-emergence herbicidal action, ECHCG; details: 80 g/ha, Table C
Summary of the method: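 Weed and crop plants grown in sandy loam in the greenhouse, treated at the one-leaf stage 2–3 weeks after sowing. Damage scored visually after about 3 weeks vs untreated controls (0% = control, 100% = dead).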

Avena fatua [7] = assay: Pre-emergence herbicidal action, AVEFA; details: dosage 320 g/ha, scored visually after 3 weeks vs untreated controls
Summary of the method: as §2

Pharbitis purpureum = assay: Post-emergence herbicidal action, PHBPU; details: 80 g/ha, Table D
Summary of the method: as §1

Amaranthus retroflexus [8] = assay: Pre-emergence herbicidal action, AMARE; details: dosage 320 g/ha, scored visually after 3 weeks vs untreated controls
Summary of the method: as §2

Viola tricolor [9] = assay: Pre-emergence herbicidal action, VIOTR; details: dosage 320 g/ha, scored visually after 3 weeks vs untreated controls
Summary of the method: as §2

Setaria viridis [10] = assay: Post-emergence herbicidal action, SETVI; details: 80 g/ha, Table C
Summary of the method: as §1

Cyperus serotinus = assay: Pre-emergence herbicidal action, CYPES; details: dosage 320 g/ha, scored visually after 3 weeks vs untreated controls
Summary of the method: as §2

Viola tricolor [11] = assay: Post-emergence herbicidal action, VIOTR; details: 80 g/ha, Table D
Summary of the method: as §1

Setaria viridis [12] = assay: Pre-emergence herbicidal action, SETVI; details: dosage 320 g/ha, scored visually after 3 weeks vs untreated controls
Summary of the method: as §2

Amaranthus retroflexus [13] = assay: Post-emergence herbicidal action, AMARE; details: 80 g/ha, Table D
Summary of the method: as §1

Alopecurus myosuroides [14] = assay: Pre-emergence herbicidal action, ALOMY; details: dosage 320 g/ha, scored visually after 3 weeks vs untreated controls
Summary of the method: as §2

| SMILES | herbicidal activity ALOMY (Alopecurus myosuroides [1]) | herbicidal activity AVEFA (Avena fatua [2]) | Herbicidal activity STEME (Stellaria media [3]) | herbicidal activity ABUTH (Abutilon theophrasti [4]) | herbicidal activity MATIN (Matricaria inodora) | Herbicidal activity STEME (Stellaria media [5]) | herbicidal activity ABUTH (Abutilon theophrasti [6]) | Herbicidal activity ECHCG (ECHCG) | herbicidal activity AVEFA (Avena fatua [7]) | Herbicidal activity PHBPU (Pharbitis purpureum) | herbicidal activity AMARE (Amaranthus retroflexus [8]) | herbicidal activity VIOTR (Viola tricolor [9]) | herbicidal activity SETVI (Setaria viridis [10]) | herbicidal activity CYPES (Cyperus serotinus) | herbicidal activity VIOTR (Viola tricolor [11]) | herbicidal activity SETVI (Setaria viridis [12]) | herbicidal activity AMARE (Amaranthus retroflexus [13]) | herbicidal activity ALOMY (Alopecurus myosuroides [14]) |
| --- | --- | --- | --- | --- | --- | --- | --- | --- | --- | --- | --- | --- | --- | --- | --- | --- | --- | --- |
| CC[S+]([O-])c1c(C(F)F)ccc(C(=O)Nc2nnnn2C)c1Br (stereo not drawn) [Example 1-65] | 100% | 100% | 100% | 100% | 100% | 100% | 100% | 100% | 100% | 100% | 100% | 100% | 100% | 90% | 100% | 100% | 100% | 100% |
| Cn1nnnc1NC(=O)c1ccc(C(F)F)c([S+](C)[O-])c1I (stereo not drawn) [Example 1-74] | 90% | 90% | 100% | 100% | 100% | 100% | 100% | 90% | 100% | 100% | 100% | 100% | 100% | 100% | 100% | 100% | 100% | 100% |
| CCn1nnnc1NC(=O)c1ccc(C(F)F)c(S(C)(=O)=O)c1C [Example 2-3] | 80% | 90% | 100% | 80% | 100% | 90% | 100% | 90% | 100% | 100% | 100% | 100% | 100% | 100% | 100% | 100% | 80% | 90% |
| CCn1nnnc1NC(=O)c1ccc(C(F)F)c([S+]([O-])CC)c1C (stereo not drawn) [Example 2-5] | 90% | 100% | 100% | 100% | 100% | 90% | 100% | 100% | 90% | 90% | 100% | 100% | 100% | 80% | 100% | 100% | 100% | 100% |
| CCn1nnnc1NC(=O)c1ccc(C(F)F)c(S(=O)(=O)CC)c1C [Example 2-6] | 80% | 100% | 100% | 100% | 100% | 100% | 100% | 90% | 100% | 100% | 100% | 100% | 90% | 100% | 100% | 100% | 90% | 100% |
| CCc1c(C(=O)Nc2nnnn2CC)ccc(C(F)F)c1SC [Example 2-13] | 80% | 90% | 100% | 100% | 100% | 100% | 100% | 90% | 100% | 100% | 100% | 100% | 100% | 100% | 100% | 100% | 100% | 100% |
| CCc1c(C(=O)Nc2nnnn2CC)ccc(C(F)F)c1S(C)(=O)=O [Example 2-15] | 80% | 100% | 100% | 100% | 100% | 100% | 100% | 90% | 100% | 80% | 100% | 100% | 100% | 100% | 100% | 100% | 100% | 100% |
| CCSc1c(C(F)F)ccc(C(=O)Nc2nnnn2CC)c1CC [Example 2-16] | 90% | 90% | 100% | 100% | 100% | 100% | 100% | 90% | 100% | 100% | 100% | 100% | 90% | 100% | 100% | 100% | 100% | 100% |
| CCc1c(C(=O)Nc2nnnn2CC)ccc(C(F)F)c1[S+]([O-])CC (stereo not drawn) [Example 2-17] | 90% | 100% | 100% | 100% | 100% | 100% | 100% | 90% | 100% | 100% | 100% | 100% | 90% | 100% | 100% | 100% | 100% | 100% |
| CCc1c(C(=O)Nc2nnnn2CC)ccc(C(F)F)c1S(=O)(=O)CC [Example 2-18] | 80% | 100% | 100% | 100% | 100% | 100% | 100% | 90% | 100% | 100% | 100% | 100% | 90% | 90% | 100% | 100% | 100% | 100% |
| CCn1nnnc1NC(=O)c1ccc(C(F)F)c(SC)c1C1CC1 [Example 2-25] | 100% | 100% | 100% | 100% | 100% | 100% | 100% | 100% | 100% | 100% | 100% | 100% | 100% | 100% | 100% | 100% | 100% | 100% |
